Assay results taken from US20090176817A1, “Method of Treatment of Diarrhea-Predominant Irritable Bowel Syndrome in a Subject” (priority 2005, published 2009).

Test system: diarrhea-predominant IBS subjects
Test: Study S241.3.009: weekly diary questions on adequate relief
Format: in vivo, human
Conditions: for Responder rate, adequate relief of abnormal bowel habits / Responder rate, adequate relief of IBS symptoms / Responder rate, adequate relief of abdominal pain/discomfort: monthly LOCF imputation; for Responder rate, adequate relief of abnormal bowel habits / Overall responder rate, adequate relief of IBS symptoms / Overall responder rate, adequate relief of abdominal pain/discomfort / Overall responder rate, adequate relief of abnormal bowel habits / Number of months a subject was a responder: One month (Abdominal pain/discomfort) / Number of months a subject was a responder: One month (Abnormal bowel habits) / Number of months a subject was a responder: One month (IBS symptoms) / Number of months a subject was a responder: Three months (Abdominal pain/discomfort) / Number of months a subject was a responder: Three months (Abnormal bowel habits) / Number of months a subject was a responder: Three months (IBS symptoms) / Number of months a subject was a responder: Two months (Abdominal pain/discomfort) / Number of months a subject was a responder: Two months (Abnormal bowel habits) / Number of months a subject was a responder: Two months (IBS symptoms) / Number of months a subject was a responder: Zero months (Abdominal pain/discomfort) / Number of months a subject was a responder: Zero months (Abnormal bowel habits) / Number of months a subject was a responder: Zero months (IBS symptoms) / Responder rate, adequate relief of IBS symptoms / Responder rate, adequate relief of abdominal pain/discomfort: ITT, 2 mg TID; for Overall responder rate, adequate relief of IBS symptoms / Overall responder rate, adequate relief of abdominal pain/discomfort / Overall responder rate, adequate relief of abnormal bowel habits: 26-week treatment period, observed case; for Number of months a subject was a responder: One month (Abdominal pain/discomfort) / Number of months a subject was a responder: One month (Abnormal bowel habits) / Number of months a subject was a responder: One month (IBS symptoms) / Number of months a subject was a responder: Three months (Abdominal pain/discomfort) / Number of months a subject was a responder: Three months (Abnormal bowel habits) / Number of months a subject was a responder: Three months (IBS symptoms) / Number of months a subject was a responder: Two months (Abdominal pain/discomfort) / Number of months a subject was a responder: Two months (Abnormal bowel habits) / Number of months a subject was a responder: Two months (IBS symptoms) / Number of months a subject was a responder: Zero months (Abdominal pain/discomfort) / Number of months a subject was a responder: Zero months (Abnormal bowel habits) / Number of months a subject was a responder: Zero months (IBS symptoms): monthly LOCF
Procedure: Study S241.3.009 was a Phase III, a double-blind, placebo-controlled, randomized, multinational study to investigate the safety and efficacy of 2 mg TID of cilansetron over 26 weeks in diarrhea-predominant IBS subjects. The study was conducted in 146 multinational study centers. A total of 1307 subjects consented to participate, and 806 subjects were randomized. A total of 792 subjects were analyzed for efficacy and 799 subjects were analyzed for safety. Diagnosis and main criteria for inclusion were IBS subjects satisfying the Rome I criteria (1992); the diarrhea-predominant sub-population of the Rome II criteria; and a minimum abdominal pain/discomfort, stool frequency and consistency determined during the run-in period. Subjects were treated with cilansetron 2 mg tablets given orally TID or matching placebo tablets given orally TID for 26 weeks.
The primary efficacy parameter was the overall response rate for IBS symptoms, based on the weekly question concerning adequate relief of IBS symptoms (abdominal pain/discomfort, abnormal bowel habits) over the 26 weeks period. A responder was a subject who responded “yes” at least 50% of the time during his/her treatment period, with minimum treatment duration of four weeks. The two main secondary efficacy parameters were overall responder rate based on the weekly question on adequate relief of abdominal pain/discomfort and abnormal bowel habits during the 26-week treatment period. The onset of action of cilansetron was also examined using daily diary data (stool frequency, and ratings of urgency and severity) during the initial 8 weeks of trial participation. An additional key secondary efficacy parameter was the number of months (one month equals four weeks) up to six months (24-weeks) that a subject was a responder for IBS symptoms, where a responder was defined as a subject who answered the weekly question with “yes” at least twice for that month. The responder rate for the weekly diary questions on adequate relief at each month and all months, the adequate relief rate, the number of subjects with adequate relief by week, daily diary questions, IBS-QOL scores, and the interruption of activities were also assessed. Safety was evaluated by physical examination, ECG, vital signs, laboratory evaluations, concomitant medications, and AEs.
Studies S24 1.3.OO6, S24 1.3.0 1 1, and S24 1.3.009 used the following efficacy measurements: • The subjects answered the following three questions with “yes” or “no” using a phone diary at the end of each week: • a) During the last week, did you experience adequate relief of your IBS symptoms, such as abdominal pain, abdominal discomfort, abnormal bowel habits? • b) During the last week, did you experience adequate relief of your abdominal pain and/or discomfort? • c) During the last week, did you experience adequate relief of your abnormal bowel habits? • The subjects rated the following symptoms using the phone diary at the end of each day: • abdominal pain/discomfort (five-point scale); • stool consistency (seven-point Bristol Stool Scale); • stool frequency (number of bowel movements each day); • urgency (five-point scale); • straining (yes or no); • feeling of incomplete defecation (yes or no); • bloating or feeling of abdominal distension (five-point scale). • In Studies S241 A006 and S241.3.009, subjects completed the IBS-QOL Survey at Baseline (Day 1) and at the end of treatment. In Study S24 1.3.0 1 1, subjects completed the IBS-QOL Survey at Baseline (Day 1), at the end of the three-month treatment period, and at the end of rerandomized treatment.
In all three pivotal efficacy studies, the primary and main secondary efficacy parameters were based on the weekly diary questions on adequate relief and included the following: • 1. Number of months (one month equals four weeks) that a subject was a responder for the weekly diary questions on adequate relief. […]

`Cc1nccn1C[C@H]1CCc2c(c3cccc4c3n2CCC4)C1=O` [Cilansetron, (R)-(−)-4,5,6,8,9,10-hexahydro-10-[(2-methyl-1H-imidazol-1-yl)methyl]-11H-pyrido-[3,2,1-jk]-carbazol-11-one] was tested, and the “Responder rate, adequate relief of abnormal bowel habits” value (Each month of Months 4 to 6) was 204 (52) n (%), the “Overall responder rate, adequate relief of IBS symptoms” value (Female subjects) was 132 (63) n (%) and the “Overall responder rate, adequate relief of abdominal pain/discomfort” value (Female subjects) was 133 (64) n (%). For the same compound, the “Overall responder rate, adequate relief of abnormal bowel habits” value (Female subjects) was 141 (67) n (%), the “Number of months a subject was a responder: One month (Abdominal pain/discomfort)” value (Female subjects, Months 1 to 3) was 30 (14) n (%) and the “Number of months a subject was a responder: One month (Abnormal bowel habits)” value (Female subjects, Months 1 to 3) was 25 (12) n (%). For the same compound, the “Number of months a subject was a responder: One month (IBS symptoms)” value (Female subjects, Months 1 to 3) was 28 (13) n (%), the “Number of months a subject was a responder: Three months (Abdominal pain/discomfort)” value (Female subjects, Months 1 to 3) was 93 (44) n (%) and the “Number of months a subject was a responder: Three months (Abnormal bowel habits)” value (Female subjects, Months 1 to 3) was 91 (44) n (%). The “Number of months a subject was a responder: Three months (IBS symptoms)” value (Female subjects, Months 1 to 3) was 82 (39) n (%), the “Number of months a subject was a responder: Two months (Abdominal pain/discomfort)” value (Female subjects, Months 1 to 3) was 36 (17) n (%) and the “Number of months a subject was a responder: Two months (Abnormal bowel habits)” value (Female subjects, Months 1 to 3) was 49 (23) n (%). For the same compound, the “Number of months a subject was a responder: Two months (IBS symptoms)” value (Female subjects, Months 1 to 3) was 47 (22) n (%), the “Number of months a subject was a responder: Zero months (Abdominal pain/discomfort)” value (Female subjects, Months 1 to 3) was 50 (24) n (%) and the “Number of months a subject was a responder: Zero months (Abnormal bowel habits)” value (Female subjects, Months 1 to 3) was 44 (21) n (%). The “Number of months a subject was a responder: Zero months (IBS symptoms)” value (Female subjects, Months 1 to 3) was 52 (25) n (%), the “Overall responder rate, adequate relief of IBS symptoms” value (Male subjects) was 102 (55) n (%) and the “Overall responder rate, adequate relief of abdominal pain/discomfort” value (Male subjects) was 106 (57) n (%). The “Overall responder rate, adequate relief of abnormal bowel habits” value (Male subjects) was 112 (60) n (%), the “Number of months a subject was a responder: One month (Abdominal pain/discomfort)” value (Male subjects, Months 1 to 3) was 31 (17) n (%) and the “Number of months a subject was a responder: One month (Abnormal bowel habits)” value (Male subjects, Months 1 to 3) was 24 (13) n (%). For the same compound, the “Number of months a subject was a responder: One month (IBS symptoms)” value (Male subjects, Months 1 to 3) was 27 (15) n (%), the “Number of months a subject was a responder: Three months (Abdominal pain/discomfort)” value (Male subjects, Months 1 to 3) was 66 (35) n (%) and the “Number of months a subject was a responder: Three months (Abnormal bowel habits)” value (Male subjects, Months 1 to 3) was 74 (40) n (%). For the same compound, the “Number of months a subject was a responder: Three months (IBS symptoms)” value (Male subjects, Months 1 to 3) was 68 (37) n (%), the “Number of months a subject was a responder: Two months (Abdominal pain/discomfort)” value (Male subjects, Months 1 to 3) was 34 (18) n (%) and the “Number of months a subject was a responder: Two months (Abnormal bowel habits)” value (Male subjects, Months 1 to 3) was 34 (18) n (%). The “Number of months a subject was a responder: Two months (IBS symptoms)” value (Male subjects, Months 1 to 3) was 33 (18) n (%), the “Number of months a subject was a responder: Zero months (Abdominal pain/discomfort)” value (Male subjects, Months 1 to 3) was 55 (30) n (%) and the “Number of months a subject was a responder: Zero months (Abnormal bowel habits)” value (Male subjects, Months 1 to 3) was 54 (29) n (%). For the same compound, the “Number of months a subject was a responder: Zero months (IBS symptoms)” value (Male subjects, Months 1 to 3) was 58 (31) n (%), the “Responder rate, adequate relief of IBS symptoms” value (Month 1) was 193 (49) n (%) and the “Responder rate, adequate relief of abdominal pain/discomfort” value (Month 1) was 199 (50) n (%). The “Responder rate, adequate relief of abnormal bowel habits” value (Month 1) was 214 (54) n (%), the “Responder rate, adequate relief of IBS symptoms” value (Month 2) was 233 (59) n (%) and the “Responder rate, adequate relief of abdominal pain/discomfort” value (Month 2) was 237 (60) n (%). For the same compound, the “Responder rate, adequate relief of abnormal bowel habits” value (Month 2) was 245 (62) n (%), the “Responder rate, adequate relief of IBS symptoms” value (Month 3) was 239 (61) n (%) and the “Responder rate, adequate relief of abdominal pain/discomfort” value (Month 3) was 242 (61) n (%). For the same compound, the “Responder rate, adequate relief of abnormal bowel habits” value (Month 3) was 251 (64) n (%), the “Responder rate, adequate relief of IBS symptoms” value (Month 4) was 237 (60) n (%) and the “Responder rate, adequate relief of abdominal pain/discomfort” value (Month 4) was 241 (61) n (%). The “Responder rate, adequate relief of abnormal bowel habits” value (Month 4) was 245 (62) n (%), the “Responder rate, adequate relief of IBS symptoms” value (Month 5) was 237 (60) n (%) and the “Responder rate, adequate relief of abdominal pain/discomfort” value (Month 5) was 242 (61) n (%). For the same compound, the “Responder rate, adequate relief of abnormal bowel habits” value (Month 5) was 247 (63) n (%), the “Responder rate, adequate relief of IBS symptoms” value (Month 6) was 233 (59) n (%) and the “Responder rate, adequate relief of abdominal pain/discomfort” value (Month 6) was 237 (60) n (%). For the same compound, the “Responder rate, adequate relief of abnormal bowel habits” value (Month 6) was 243 (62) n (%), the “Median adequate relief rate, IBS symptoms” value (Months 1 to 3) was 0.58 and the “Median adequate relief rate, abdominal pain/discomfort” value (Months 1 to 3) was 0.58. For the same compound, the “Median adequate relief rate, abnormal bowel habits” value (Months 1 to 3) was 0.67, the “Overall responder rate, abdominal pain/discomfort” value (Months 1 to 3) was 56% and the “Overall responder rate, abnormal bowel habits” value (Months 1 to 3) was 62%. For the same compound, the “Overall responder rate, IBS symptoms” value (Months 1 to 3, observed case) was 55%, the “Median adequate relief rate, IBS symptoms” value (Months 1 to 6) was 0.64 and the “Median adequate relief rate, abdominal pain/discomfort” value (Months 1 to 6) was 0.63. For the same compound, the “Median adequate relief rate, abnormal bowel habits” value (Months 1 to 6) was 0.70, the “Overall responder rate difference vs placebo across diary questions” value (Romania) was −29% to −8 and the “Overall responder rate difference vs placebo, each diary question” value (South Africa) was −23%.
